Measured values from article PMC7933930, “Development of a small molecule that corrects misfolding and increases secretion of Z α1‐antitrypsin” (EMBO Molecular Medicine, 2021).

What was measured:
[1] = system: CHO inducible cells expressing wild‐type M α1‐antitrypsin; test: Tunicamycin sensitivity, cell viability (Cell Counting Kit‐8), cells expressing M α1‐antitrypsin; format: cell-based; conditions: 10 μM GSK716, cells expressing M α1‐antitrypsin, tunicamycin 36 h
Procedure: Figure 2 GSK716 inhibits polymerisation of Z α1‐antitrypsin in cell models of disease • A GSK716 was added to CHO‐TET‐ON‐Z‐A1AT cells (Ordóñez et al, 2013) with simultaneous induction of Z α1‐antitrypsin expression using doxycycline, and polymer load was quantified with the 2C1 monoclonal antibody that is specific to pathological polymers of α1‐antitrypsin (Miranda et al, 2010). […] Data were normalised to vehicle and a control compound from the GSK716 series at saturating concentration. […] It induced an approximately threefold increase in secreted levels of Z α1‐antitrypsin compared with vehicle control. This was apparent even after polymers had been allowed to form. Scale bar: 100 µm. Data presented as mean ± SD, n = 8 (secretion) and n = 6 (polymer inhibition). • E CHO tetracycline‐inducible cells expressing Z α1‐antitrypsin were induced with 0.5 μg/ml doxycycline for 48 h and treated with 10 μM GSK716. […] For every time point, NP‐40‐soluble and NP‐40‐insoluble fractions were separated and immunoprecipitated with the 2C1 mAb and resolved by 4–12% w/v SDS–PAGE and α1‐antitrypsin detected by immunoblotting. […] Cell viability was measured by Cell Counting Kit‐8. […] Samples were resolved by 4–12% w/v acrylamide SDS–PAGE and detected by autoradiography. • H The graphs show the effect of GSK716 on intracellular and extracellular Z α1‐antitrypsin (mean ± SEM, n = 2). […]

LCK = LCK (Homo sapiens, UniProt P06239); test: Off‐target panel: LCK; format: biochemical; conditions: Inhibition, read-out: Mean (PXC50)
Procedure: (§1) GSK716 selectivity and PK properties were profiled in order to investigate the suitability of GSK716 for progression into in vivo studies and the potential for taking it forward as a clinical candidate for testing in humans. Since GSK716 results in loss of inhibitory activity of α1‐antitrypsin, the effect of the compound was assessed on other closely related serpins. […] Furthermore, there were no off‐target effects in a panel of assays considered predictive of known safety liabilities that precluded further development of GSK716 (Table EV1).

Histamine H1 = Histamine H1 (Homo sapiens, UniProt P35367); test: Off‐target panel: Histamine H1 (DRX); format: cell-based; conditions: Antagonist, read-out: Mean (PXC50) (converted)
Procedure: as §1

Chain of LCK (P06239 whole entry, species assumed): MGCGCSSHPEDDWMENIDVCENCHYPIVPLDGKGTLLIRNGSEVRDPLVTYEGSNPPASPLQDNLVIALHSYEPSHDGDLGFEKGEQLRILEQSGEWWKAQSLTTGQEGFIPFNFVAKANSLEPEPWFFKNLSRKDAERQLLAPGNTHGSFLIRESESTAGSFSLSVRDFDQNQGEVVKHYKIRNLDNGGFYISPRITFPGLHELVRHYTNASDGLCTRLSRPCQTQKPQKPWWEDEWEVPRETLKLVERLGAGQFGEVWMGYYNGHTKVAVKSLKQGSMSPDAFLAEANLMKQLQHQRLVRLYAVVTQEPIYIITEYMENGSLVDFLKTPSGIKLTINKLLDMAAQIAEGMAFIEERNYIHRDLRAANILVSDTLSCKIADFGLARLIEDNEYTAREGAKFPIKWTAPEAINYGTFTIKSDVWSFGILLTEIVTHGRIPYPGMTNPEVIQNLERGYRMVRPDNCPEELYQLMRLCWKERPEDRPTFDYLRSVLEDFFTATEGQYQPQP
Chain of Histamine H1 (P35367 whole entry): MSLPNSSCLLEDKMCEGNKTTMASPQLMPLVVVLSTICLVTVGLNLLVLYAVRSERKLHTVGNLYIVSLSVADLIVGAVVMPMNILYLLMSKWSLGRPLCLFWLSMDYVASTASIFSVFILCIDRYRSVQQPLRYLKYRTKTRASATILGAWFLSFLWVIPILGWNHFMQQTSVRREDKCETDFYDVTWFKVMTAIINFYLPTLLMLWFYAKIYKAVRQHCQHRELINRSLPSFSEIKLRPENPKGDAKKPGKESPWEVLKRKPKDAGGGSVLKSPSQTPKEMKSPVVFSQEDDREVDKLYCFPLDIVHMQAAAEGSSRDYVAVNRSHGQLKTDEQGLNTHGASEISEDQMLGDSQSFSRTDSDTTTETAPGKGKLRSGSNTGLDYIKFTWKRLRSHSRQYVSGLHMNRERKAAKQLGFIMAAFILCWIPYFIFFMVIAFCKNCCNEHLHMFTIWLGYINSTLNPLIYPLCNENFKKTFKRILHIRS

CCC[C@@H](NC(=O)c1cccc2c1CC(=O)N2)[C@@H](O)c1cccc(F)c1C [GSK716]
survival with tunicamycin (cell viability) [1]: no effect
IC50 (LCK): > 31.6 µM
IC50 (Histamine H1): 10 µM
